{
  "source": "patent US10857201B2",
  "about": "“NNIF and nNIF-related peptides and related methods” (UNIVERSITY OF UTAH RESEARCH FOUNDATION, priority 2016, dated 2020)",
  "key": {"[1]": {"tested_on": "nuclear histone H3 citrullination", "experiment": "Histone H3 citrullination in PMA-activated neutrophils (immunocytochemistry)", "assay_type": "cell-based, human", "conditions": "PMA 20 nM, 15 minutes; peptides 1 nM, Cl-amidine 10 μM", "source_text": "Green fluorescence=citrullinated-histone H3, magenta fluorescence=nuclear DNA (60× magnification; scale bar=20 μm). The right panel depicts Histone H3 citrullination that was quantified using IMAGEJ™ software (mean citrullinated-histone H3 pixel area per cell±SEM) (n=3). One way ANOVA with Tukey's post hoc testing, *P<0.05.\nImaging was accomplished via confocal microscopy using a FV1000 IX81 confocal microscope and FLUOVIEW™ software (OLYMPUS™). Semi-quantitation was accomplished using IMAGEJ™ software (NIH) to determine the average citrullinated histone H3 content per cell."}, "[2]": {"tested_on": "nuclear chromatin decondensation in PMNs", "experiment": "Nuclear decondensation assay in PMA-treated neutrophils", "assay_type": "cell-based, human", "conditions": "PMA 20 nM; peptides 1 nM, Cl-amidine 10 μM, sivelestat 200 nM", "procedure": "FIG. 7B is a graph depicting nuclear areas that were measured (n=4) using IMAGEJ™ software (mean nuclear pixel area per cell±SEM). Paired Student's t test, *P<0.05, § P=0.057.\nFIG. 12A depicts nuclear decondensation (white arrowheads and magnified image) that were assessed as in FIGS. 7A-7E after a 1 hour preincubation in medium alone, with neutrophil elastase (NE) inhibitor sivelestat (SIVL; 200 nM), or with CRISPP or CRISPP-SCR (both 1 nM) followed by treatment with PMA (20 nM) and an additional 1 hour incubation (n=3). Green fluorescence=nuclear DNA, (60× magnification, scale bar=20 μm). Nuclear area was quantified using IMAGEJ™ software (nuclear pixel area per cell±SEM). One way ANOVA with Tukey's post hoc testing; **P<0.01, ***P<0.001.\nNuclear decondensation was identified as described (see Papayannopoulos V, et al., J Cell Biol. 2010; 191 (3):677-91). Five randomly selected high-power visual fields per sample were captured via confocal microscopy and analyzed for nuclear area using the cell-permeable, fluorescent DNA dye SYTO® Green. The nuclear pixel areas of >100 individual cells per high-power field were determined using IMAGEJ™ software (NIH)."}, "neutrophil elastase (NE)": {"target": "T1, neutrophil elastase (NE) (Homo sapiens, UniProt P08246)", "T1 construct": "purchased SIGMA-ALDRICH", "T1 sequence (P08246 30-267)": "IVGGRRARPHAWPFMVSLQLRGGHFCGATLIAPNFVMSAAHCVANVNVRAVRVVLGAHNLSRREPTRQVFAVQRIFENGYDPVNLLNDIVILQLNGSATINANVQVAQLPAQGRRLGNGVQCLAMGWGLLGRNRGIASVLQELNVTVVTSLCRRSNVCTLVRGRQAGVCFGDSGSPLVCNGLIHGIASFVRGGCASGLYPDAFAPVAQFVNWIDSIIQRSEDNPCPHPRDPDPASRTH", "experiment": "Neutrophil elastase activity assay", "assay_type": "biochemical", "conditions": "in vitro; (MeOSuc)-AAPV-(pNA) 160 μM, 3 hours, 37° C., and additional assays", "procedure": "FIG. 12B depicts NE enzyme activity that was examined by cleavage of the synthetic substrate (MeOSuc)-AAPV-(pNA) to (MeOSuc)-AAPV and (pNA) as products detected by liquid chromatography and chromatogram peak identification by mass spectroscopy. (MeOSuc)-AAPV-(pNA) (160 μm) was incubated with NE (2 mU), sivelestat (160 μm), or NE and sivelestat (left panel) or with NE (2 mU), nNIF ([…]), or NE and nNIF (right panel) for 3 hours at 37° C. Chromatograms are offset on the X and Y axes for ease of comparison. In the presence of NE alone, the (MeOSvc)-AAPV-(pNA) peak was almost completely eliminated and (MeOSvc)-AAPV and (pNA) peaks were generated. […] In contrast, it was not inhibited by nNIF.\nSynthetic fluorogenic substrate of NE, (MeOSuc)-AAPV-(pNA) (160 μM), was incubated with bioactive NE (500 nM)±the NE inhibitor, sivelestat (160 μM) or nNIF (50 nM), for 3 hours at 37° C. The reactions were quenched with 5% glacial acetic acid and centrifuged at 14,000 rpm for 5 minutes. Chromatograms were obtained using an AGILENT™ 1100 Series HPLC and a PHENOMENEX® 5 μm C18 LUNA® column (100 Å, 4.6×150 mm) over a 30 minute 10% to 90% B gradient (Buffer A 0.1% TFA in H2O, Buffer B 0.1% TFA in ACN). Mass spectra were obtained for secondary validation of the reaction products using an API® 3500 triple quadrupole mass spectrometer. Chromatograms were offset on both the X and Y axes (by 0.5 minutes and 0.1 A214, respectively) for greater visibility."}, "previously-formed NETs": {"tested_on": "previously-formed NETs", "experiment": "Post-treatment of previously formed NETs (dismantling)", "assay_type": "cell-based, human", "conditions": "agent added after LPS stimulation; nNIF, CRISPP 1 nM; DNase 3.78 U/mL", "procedure": "FIG. 4A is a series of images depicting neutrophils isolated from venous blood of healthy adults that were incubated in medium alone (Control) or activated with LPS (100 ng/mL). CRISPP (1 nM) was added at 0, 30, or 60 minutes after LPS, and the presence of NETs was assessed by live cell imaging as in FIG. 1A after an additional 1 hour of incubation (20× magnification; scale bar=100 μm). The images are representative of three separate experiments.\n(§1) For selected experiments, primary PMNs were pre-incubated with autologous plasma, cord blood plasma, nNIF (0.2-70 nM), CRISPP (0.2-70 nM), nNIF-SCR (1 nM), or CRISPP-SCR (1 nM) for one hour prior to stimulation. After pre-incubation and/or stimulation, PMNs were gently washed with PBS and incubated with a mixture of cell permeable (SYTO® Green, MOLECULAR PROBES®) and impermeable (SYTOX® Orange, MOLECULAR PROBES®) DNA fluorescent dyes. Confocal microscopy was accomplished using a FV1000 IX81 confocal microscope and FLUOVIEW™ software (OLYMPUS™). Both 20× and 60× objectives were used. Z-series images were obtained at a step size of 1 μm over a range of 20 μm for each field. FLUOVIEW™ and ADOBE™ PHOTOSHOP™ CS2 software was used for image processing."}, "[3]": {"tested_on": "neutrophil extracellular trap (NET) formation", "experiment": "In vitro NET formation by stimulated human PMNs (live cell imaging, NET-associated histone H3 release)", "assay_type": "cell-based", "conditions": "for NET formation triggered by LPS: adult PMNs preincubated with agent, LPS 100 ng/mL, 1 hour", "procedure": "as §1, with “Qualitative assessment of NET formation was performed as previously reported (see Yost C C, et al., Blood. 2009; 113 (25):6419-27 and McInturff A M, et al., Blood. 2012; 120 (15):3118-25). Briefly, primary PMNs isolated from preterm infants, healthy term infants, and healthy adults (2×10^6 cells/mL) were incubated with control buffer or stimulated with indicated agonists or bacteria for 1 hour at 37° C. in 5% CO2/95% air on glass coverslips coated with poly-L-lysine. For” for “For”\nUsing BSL 2 safety protocols, primary PMNs isolated from healthy adults (2×10^6 cells/mL) were incubated with mock infection buffer or live dengue virus (M010.05) as for live cell imaging. After a 1-hour incubation, the infected PMNs were fixed with 2% p-FA for 10 minutes prior to incubation with fluorescently-labeled, cell-permeable and cell-impermeable DNA dyes, and imaged as for live cell imaging using confocal microscopy.\nNET-associated histone H3 content was determined as previously described (see McInturff A M, et al., Blood. 2012; 120 (15):3118-25). After live cell imaging of control and stimulated primary PMNs (2×10^6/mL; various agonists), the cells were incubated with PBS containing DNase (40 U/mL) for 15 minutes at room temperature to break down and release NETs formed in response to stimulation. The supernatant was gently removed and centrifuged at 420×g for 5 minutes. The cell-free supernatant was then mixed 3:1 with 4× Laemmli buffer prior to western blotting. A polyclonal primary antibody against human histone H3 protein (CELL SIGNALING®) and infrared-conjugated secondary antibodies (LI-COR®) were used. Imaging and densitometry were performed on the ODYSSEY® infrared imaging system)(LI-COR®). This assay was previously validated as a surrogate for NET formation under in vitro conditions (see McInturff A M, et al., Blood. 2012; 120 (15):3118-25) as employed in the present studies.\nWithout being bound by any specific theory, it was hypothesized that placentally expressed HTRA1, a serine protease, regulates the formation of NET-inhibitory peptides through cleavage of AAT. To test this hypothesis, term and preterm placenta were assessed for HTRA1 expression via western blotting. HTRA1 and AAT plasma expression from term and preterm infants and adults were determined by ELISA. Bioactive (0.5 μg) or placental eluted HTRA1 was incubated with AAT (8 μM) for 18 hours at 37° C. Carboxy-terminus fragments of AAT were detected using western blotting and mass spectrometry. The reaction products were incubated for 1 hour with PMNs isolated from healthy adults prior to LPS stimulation (100 ng/mL) and assessed for NET formation using live cell imaging. Reactive oxygen species were assessed using flow cytometry, chemotaxis using a modified Boyden chamber assay, and bacterial killing using E. coli."}, "recombinant PAD4": {"target": "T2, recombinant PAD4 (Homo sapiens, UniProt Q9UM07)", "T2 construct": "purchased CAYMAN", "T2 sequence (Q9UM07 whole entry)": "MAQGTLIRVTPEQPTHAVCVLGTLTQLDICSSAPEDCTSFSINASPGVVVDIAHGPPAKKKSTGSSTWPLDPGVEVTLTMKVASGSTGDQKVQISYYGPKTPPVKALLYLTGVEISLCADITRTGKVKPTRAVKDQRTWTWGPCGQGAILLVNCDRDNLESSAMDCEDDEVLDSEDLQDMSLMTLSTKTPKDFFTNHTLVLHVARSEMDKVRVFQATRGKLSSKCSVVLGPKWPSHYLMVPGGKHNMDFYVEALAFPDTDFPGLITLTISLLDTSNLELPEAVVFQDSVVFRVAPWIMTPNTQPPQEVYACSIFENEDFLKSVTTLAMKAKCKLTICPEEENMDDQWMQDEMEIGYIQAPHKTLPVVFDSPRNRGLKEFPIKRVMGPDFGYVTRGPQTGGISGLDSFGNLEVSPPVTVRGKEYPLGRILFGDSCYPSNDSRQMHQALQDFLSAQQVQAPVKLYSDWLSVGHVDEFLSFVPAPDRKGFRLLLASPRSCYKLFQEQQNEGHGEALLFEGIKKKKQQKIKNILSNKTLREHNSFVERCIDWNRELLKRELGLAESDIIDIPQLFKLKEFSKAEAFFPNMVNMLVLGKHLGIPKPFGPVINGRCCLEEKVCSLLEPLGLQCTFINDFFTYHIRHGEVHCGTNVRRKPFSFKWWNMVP", "experiment": "Cell-free PAD4 deimination assay", "assay_type": "biochemical", "conditions": "initial comparison of NRPs", "procedure": "One way ANOVA with Tukey's post hoc testing, ***P<0.001.\nnNIF inhibition of PAD4 activity was determined using a PAD4 inhibitor screening assay kit (CAYMAN™). Briefly, nNIF (1 nM) was incubated with recombinant PAD4 and PAD4 enzyme substrate (2 mM) in PAD4 assay reagent for 30 minutes at 37° C. […] The reaction was stopped with PAD4 Stop Solution and detected using an included ammonia detector assay. Ammonia detector fluorescence was measured at 470 nm following excitation at 405 nm on a SPECTRAMAX™ M5 fluorescence plate reader (MOLECULAR DEVICES™)."}},
  "note": "“Also recorded” adds a separate entry of the source.",
  "data": [
    {"compound": "NC(=O)[C@H](CCCN=C(N)CCl)NC(=O)c1ccccc1", "note": "[Cl-amidine, reference compound]", "values": [
      {"measurement": "nuclear histone H3 citrullination", "setting": "[1]", "value": "inhibited"},
      {"measurement": "nuclear decondensation (number of decondensed nuclei)", "setting": "[2]", "value": "blocked nuclear decondensation"}
    ]},
    {"compound": "CC(C)(C)C(=O)Oc1ccc(S(=O)(=O)Nc2ccccc2C(=O)NCC(=O)O)cc1", "note": "[sivelestat, reference compound]", "values": [
      {"measurement": "NE activity (substrate cleavage)", "setting": "neutrophil elastase (NE)", "value": "inhibited but not eliminated"},
      {"measurement": "nuclear decondensation (number of decondensed nuclei)", "setting": "[2]", "value": "blocks nuclear decondensation"}
    ]},
    {"compound": "DNase [reference compound]", "values": [
      {"measurement": "degradation or dismantling of previously-formed NETs", "setting": "previously-formed NETs", "value": "dismantled"}
    ]},
    {"compound": "LNTNKTKMGVQFPKMPFFKQIPVNSLEFV (Scrambled Peptide Control) [nNIF-SCR, scrambled control peptide of nNIF, reference compound]", "values": [
      {"measurement": "NET formation triggered by LPS", "setting": "[3]", "value": "does not"}
    ]},
    {"compound": "MFLEAIPMSIPPEVKFNKPFVFLMIEQNTKSPLFMLKVVS (listed as Homo sapiens) [A1ATm^358]", "values": [
      {"measurement": "order of potency of inhibition of PAD4", "setting": "recombinant PAD4", "value": "nNIF ≈CRISPP>A1ATm^358"},
      {"measurement": "NET formation triggered by LPS", "setting": "[3]", "value": "inhibits NET formation, although with lesser potency than nNIF; also recorded: concentration-dependent pattern of inhibition"},
      {"measurement": "relative inhibition of NETosis (order of potency)", "setting": "[3]; initial comparison of NRPs", "value": "nNIF ≈CRISPP>A1ATm^358"}
    ]},
    {"compound": "PMVSVAMMLSENIFKLPEVKSVPTEFFPKFINMKLLPFQI (Scrambled Peptide Control) [A1ATm^358-SCR, scrambled A1ATm^358, reference compound]", "values": [
      {"measurement": "NET formation triggered by LPS", "setting": "[3]", "value": "not"}
    ]},
    {"compound": "SIPPEVKFNKPFVFLMIEQNTKSPLFMGKWNPTQK (listed as Homo sapiens) [HTRA1-CF, synthesized peptide generated by cleavage of A1AT by HTRA1]", "values": [
      {"measurement": "NET formation (FIG. 14)", "setting": "[3]; agonist not stated", "value": "inhibits NET formation"}
    ]},
    {"compound": "alpha-1-antitrypsin [full-length A1AT]", "values": [
      {"measurement": "NET formation triggered by LPS", "setting": "[3]", "value": "did not inhibit NET formation"}
    ]},
    {"compound": "recombinant A1AT: active full-length recombinant A1AT from SIGMA-ALDRICH", "values": [
      {"measurement": "NET formation triggered by LPS", "setting": "[3]", "value": "did not inhibit NET formation"}
    ]}
  ]
}
